Laboratory results taken from ChEMBL document CHEMBL1201862, “PubChem BioAssay data set” (2004).
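In this assay, cells in 96-well plates receive the compound at five concentrations for 48 hours. Endpoints are linearly interpolated between the surrounding concentrations. At the GI50, growth is halved.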 Active and inactive are the calls of the source. Cut-off read from the data, not from the text of the source: active = GI50 up to about 1.1 µM and inactive = higher.

Columns and labels:
Assay in all cases: NCI anticancer screen, dose series, 48 h
[1] = test system: OVCAR-8
[2] = test system: UO-31
[3] = test system: CCRF-CEM
[4] = test system: RPMI-8226
[5] = test system: HOP-62
[6] = test system: TK-10
[7] = test system: SNB-75
[8] = test system: OVCAR-5
[9] = test system: LOX IMVI
[10] = test system: LXFL 529
[11] = test system: UACC-257
[12] = test system: OVCAR-4
[13] = test system: A498
[14] = test system: COLO 205
[15] = test system: NCI-H226
[16] = test system: MDA-MB-435
[17] = test system: SR
[18] = test system: NCI/ADR-RES
[19] = test system: BT-549
[20] = test system: MDA-MB-231

Measured: GI50

CCN(CC)c1ccc(C(=O)c2ccccc2C(=O)O)c(O)c1
inactive: [1] > 100 µM | [2] > 100 µM | [3] > 100 µM | [4] > 100 µM | [5] > 100 µM | [6] > 100 µM | [7] > 100 µM | [8] > 100 µM | [9] > 100 µM | [10] > 100 µM | [11] > 100 µM | [12] > 100 µM | [13] > 100 µM | [14] > 100 µM

CC1C[C@H](OC(N)=O)C(C)CC1=O (some centres not stated)
inactive: [1] > 100 µM | [2] > 100 µM | [3] > 100 µM | [4] > 100 µM | [5] > 100 µM | [6] > 100 µM | [7] > 100 µM | [8] > 100 µM | [9] > 100 µM | [10] > 100 µM | [11] > 100 µM | [12] > 100 µM | [13] > 100 µM | [14] > 100 µM

O=C(Nc1ccc(Cl)c(Cl)c1)C(=O)C(C(=O)c1ccccc1-c1ccccc1)C1OC(=O)c2ccccc21 (configuration not stated)
inactive: [1] 17.4 µM | [2] 15.6 µM | [3] 12.1 µM | [4] 8.24 µM | [5] 13.1 µM | [6] 23.6 µM | [7] 13 µM | [8] 18.5 µM | [9] 13.5 µM | [10] 8.81 µM | [11] 18.9 µM | [15] 3.04 µM | [13] 22.9 µM | [14] 15.6 µM

CCCCCCCCCCCCCS(=O)(=O)O
inactive: [1] > 100 µM | [2] > 100 µM | [3] > 100 µM | [5] > 100 µM | [6] > 100 µM | [7] > 100 µM | [8] > 100 µM | [9] > 100 µM | [10] > 100 µM | [11] > 100 µM | [12] > 100 µM | [15] > 100 µM | [13] > 100 µM | [14] > 100 µM

N#CI1OC(=O)c2ccccc21
inactive: [1] > 100 µM | [16] > 100 µM | [2] > 100 µM | [3] 2.83 µM | [4] 38.5 µM | [5] > 100 µM | [17] 23.6 µM | [6] > 100 µM | [7] > 100 µM | [18] > 100 µM | [8] > 100 µM | [9] > 100 µM | [11] > 100 µM | [12] > 100 µM | [15] > 100 µM | [13] > 100 µM | [19] 91.2 µM | [20] > 100 µM | [14] > 100 µM

COC(=O)c1cc(C)ccc1CC(Cc1ccc(C)cc1)C(=O)OC (configuration not stated)
inactive: [1] > 66.8 µM | [16] 31 µM | [2] 17.1 µM | [3] 62.8 µM | [4] 5.77 µM | [5] > 100 µM | [17] 7.71 µM | [6] > 100 µM | [7] 6.78 µM | [18] 23.7 µM | [8] 9.86 µM | [9] 19.1 µM | [11] 9.89 µM | [12] 38.8 µM | [15] > 47.4 µM | [13] 72.6 µM | [19] > 100 µM | [20] 31.9 µM | [14] 14.8 µM

C/C(CC(=O)Nc1cccc(Cl)c1C)=N\NC(N)=S
inactive: [1] > 100 µM | [2] > 100 µM | [3] > 100 µM | [4] > 100 µM | [5] > 100 µM | [6] > 100 µM | [7] > 100 µM | [8] > 100 µM | [9] > 100 µM | [10] > 100 µM | [11] > 100 µM | [15] > 100 µM | [13] > 100 µM | [14] > 100 µM

O=[N+]([O-])c1ccc2c(c1)Sc1ccccc1N2CCCCCl
inactive: [1] > 100 µM | [16] > 100 µM | [2] > 100 µM | [3] > 100 µM | [4] > 100 µM | [5] > 100 µM | [17] > 100 µM | [6] > 100 µM | [7] > 100 µM | [18] > 100 µM | [8] > 100 µM | [9] > 100 µM | [11] > 100 µM | [12] 3.86 µM | [15] > 100 µM | [13] > 100 µM | [19] > 100 µM | [20] > 100 µM | [14] > 100 µM

c1ccc2c(c1)Sc1ccccc1N2CC1CN2CCC1CC2 (configuration not stated) [MEQUITAZINE]
inactive: [1] 13.4 µM | [16] 2.8 µM | [2] 7.06 µM | [3] 3.28 µM | [4] 2.99 µM | [5] 13.4 µM | [17] 2.58 µM | [6] 6.41 µM | [7] 1.75 µM | [18] 11.1 µM | [8] 11.7 µM | [9] 3.08 µM | [11] 1.88 µM | [12] 6.5 µM | [15] 14.5 µM | [13] 11.7 µM | [19] 14.5 µM | [20] 3.8 µM | [14] 1.69 µM

Cn1cc(NC(=O)c2cc(NC(=O)CCCCCCCCCC(=O)Nc3cc(C(=O)Nc4cc(C(=O)NCCC(=N)N)n(C)c4)n(C)c3)cn2C)cc1C(=O)NCCC(=N)N
inactive: [1] 25.7 µM | [2] 53.5 µM | [3] 22.6 µM | [4] 8.26 µM | [5] 24.5 µM | [6] 22.7 µM | [7] 27.9 µM | [8] 32.7 µM | [9] 31 µM | [10] 24.5 µM | [11] 15.8 µM | [12] 34.8 µM | [15] > 100 µM | [14] 21.2 µM

CC1=C2NCN(C)N=C2C(C#N)(C#N)C1(C#N)C#N
inactive: [1] 27 µM | [16] 21.7 µM | [2] 18.4 µM | [3] 2.22 µM | [4] 10.9 µM | [5] > 55.2 µM | [17] 6.49 µM | [6] 16.4 µM | [7] > 51.1 µM | [18] 28.6 µM | [8] 33.5 µM | [9] 20.8 µM | [11] 17 µM | [12] 20 µM | [15] > 50.7 µM | [13] 41.3 µM | [19] 21.6 µM | [20] 19.6 µM | [14] 5 µM

Cc1cc2c(c3c1c1ccccc1n3C)C(=O)c1ccccc1C2=O
inactive: [1] > 100 µM | [2] > 100 µM | [3] > 100 µM | [4] > 100 µM | [5] > 100 µM | [6] > 100 µM | [7] > 100 µM | [8] > 100 µM | [9] > 100 µM | [10] > 100 µM | [11] > 100 µM | [12] > 100 µM | [14] > 100 µM
